pKi: −log10 of the molar value.
Biological target: 5-hydroxytryptamine receptor 4 (Rattus norvegicus, UniProt Q62758)
Sequence (Q62758 whole entry): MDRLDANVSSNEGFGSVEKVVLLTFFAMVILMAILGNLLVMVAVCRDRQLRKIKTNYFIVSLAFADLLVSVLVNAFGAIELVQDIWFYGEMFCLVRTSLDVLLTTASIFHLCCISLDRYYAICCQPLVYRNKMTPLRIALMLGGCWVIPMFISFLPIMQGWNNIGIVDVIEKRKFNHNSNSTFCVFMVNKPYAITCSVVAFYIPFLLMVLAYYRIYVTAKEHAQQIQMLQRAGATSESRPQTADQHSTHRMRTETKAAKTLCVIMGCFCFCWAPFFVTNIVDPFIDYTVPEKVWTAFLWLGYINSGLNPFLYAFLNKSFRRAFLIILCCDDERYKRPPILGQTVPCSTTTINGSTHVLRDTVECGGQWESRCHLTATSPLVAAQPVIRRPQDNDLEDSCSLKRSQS

| Structure (SMILES) | pKi |
| --- | --- |
| COc1ccc2[nH]cc(CCN)c2c1 [tryptamine, 5-Methoxy] | 6.40 |
| COc1cc(N)c(Cl)cc1C(=O)NC1CCN2CCCC1C2 (centres undefined) [NSC_3035240] | 6.61 |
| CCCN(CCC)C1CCc2cccc(O)c2C1 (centres undefined) | 6.00 |
| CCN(CC)C(=O)[C@@H]1C=C2c3cccc4[nH]cc(c34)C[C@H]2N(C)C1 [(4R,7R)-N,N-diethyl-6-methyl-6,11-diazatetracyclo[7.6.1.0^{2,7}.0^{12,16}]hexadeca-1(16),2,9,12,14-pentaene-4-carboxamide] | 6.00 |
| CN1C2CCC1CC(OC(=O)c1c[nH]c3ccccc13)C2 (centres undefined) | 6.26 |
| COc1cc(N)c(Cl)cc1C(=O)NC1CN2CCC1CC2 (centres undefined) [ZACOPRIDE,R] | 6.09 |
| Cn1cc(CCN)c2cc(O)ccc21 [5-HT,omega-N-Me] | 5.84 |
| O=C(c1ccc(F)cc1)C1CCN(CCn2c(=O)[nH]c3ccccc3c2=O)CC1 [3-(2-{4-[(4-fluorophenyl)carbonyl]piperidin-1-yl}ethyl)-1,2,3,4-tetrahydroquinazoline-2,4-dione] | 6.00 |
| CNS(=O)(=O)Cc1ccc2[nH]cc(CCN(C)C)c2c1 [Sumax] | 6.00 |
